Measured values as given in PMC4920590, “GPR142 Controls Tryptophan-Induced Insulin and Incretin Hormone Secretion to Improve Glucose Metabolism” (PLoS ONE, 2016).
One block for each compound: values may come before it.

Experiments:
human GPR142 = target: T1, human GPR142 (Homo sapiens, UniProt Q7Z601); test: IP-1 accumulation assay in HEK293 cells stably expressing human GPR142; type: cell-based; conditions: for Emax: HEK293, relative efficacy normalized to maximal response of L-Tryptophan (100%), read-out: HEK293-hGPR142 Emax; for EC50: IP-1 accumulation, 1 hour, 170 nM to 30 mM, read-out: HEK293-hGPR142 EC50; for HEK293-hGPR142 EC50 (Emax): activity call, tested 170 nM to 30 mM; for IP-1 accumulation in HEK-hGPR142 cells: Fig 1A, 1B
T1 construct: expressed in transfected cells
T1 sequence (Q7Z601 1-374 isoform Q7Z601-2): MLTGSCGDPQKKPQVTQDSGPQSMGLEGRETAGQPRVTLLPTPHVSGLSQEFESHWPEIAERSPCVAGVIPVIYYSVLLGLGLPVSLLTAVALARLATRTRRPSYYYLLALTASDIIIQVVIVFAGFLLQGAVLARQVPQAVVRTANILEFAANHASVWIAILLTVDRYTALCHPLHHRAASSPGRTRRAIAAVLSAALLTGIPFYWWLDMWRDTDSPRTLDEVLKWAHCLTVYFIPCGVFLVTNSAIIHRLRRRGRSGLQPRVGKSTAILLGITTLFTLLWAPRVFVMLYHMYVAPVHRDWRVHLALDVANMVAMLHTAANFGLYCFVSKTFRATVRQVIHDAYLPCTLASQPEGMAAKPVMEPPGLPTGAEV
Method: (§1) HEK293 cells obtained from ATCC were used to generate cell lines stably expressing human GPR142 or mouse Gpr142 by transfecting cells with pcDNA3.1 expression vectors containing each cDNA. Cells expanded from single clones were maintained in DMEM containing 10% fetal bovine serum (FBS) and 800 μg/ml G418. Untransfected control HEK293 cells were maintained in DMEM containing 10% FBS. Cells were plated in 384 well plates at 5000 cells per well and allowed 18 hours for attachment. After addition of compounds, cells were incubated for 1 hour. IP-1 measurements were performed using an HTRF assay kit (Cisbio) according to manufacturer’s protocol using assay buffer containing 1 × HBSS (Hank’s Balanced Salt Solution, +Ca, +Mg), 0.1% bovine serum albumin (BSA), 50 mM LiCl and 20 mM HEPES (4-(2-hydroxyethyl)-1-piperazineethanesulfonic acid), pH 7.2. The reaction was stopped by addition of IP1-d2 followed by cryptate solution and the plates were incubated at 25°C for 1 hour. Fluorescence was read in an Envision instrument at 665 nm and 620 nm. The ratio of 665 nm/620 nm was calculated and converted to IP-1 levels using a standard curve method. The data was fit to 4-parameter fit logistics to determine EC50 values.

mouse GPR142 = target: T2, mouse GPR142 (Mus musculus, UniProt Q7TQN9); test: IP-1 accumulation assay in HEK293 cells stably expressing mouse Gpr142; type: cell-based; conditions: for Emax: HEK293, relative efficacy normalized to maximal response of L-Tryptophan (100%), read-out: HEK293-mGPR142 Emax; for EC50: IP-1 accumulation, 1 hour, 170 nM to 30 mM, read-out: HEK293-mGPR142 EC50
T2 sequence (Q7TQN9 67-365 limits assumed): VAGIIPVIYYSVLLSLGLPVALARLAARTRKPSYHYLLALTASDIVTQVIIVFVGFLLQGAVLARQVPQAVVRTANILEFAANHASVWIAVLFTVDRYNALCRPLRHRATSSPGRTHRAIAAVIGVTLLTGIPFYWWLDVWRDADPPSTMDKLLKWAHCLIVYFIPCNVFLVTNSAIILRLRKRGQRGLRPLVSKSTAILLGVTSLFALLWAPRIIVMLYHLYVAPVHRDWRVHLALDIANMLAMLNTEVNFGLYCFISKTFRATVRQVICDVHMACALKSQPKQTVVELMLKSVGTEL
Method: as §1

[1] = Plasma insulin and incretin hormone levels after oral dosing in mice; type: in vivo, mouse; conditions: for GIP release in Gpr142 KO mice / insulin release in Gpr142 KO mice / plasma GLP-1 in Gpr142 KO mice: 500 mg/kg p.o., 10 minutes after dosing, vs WT
Method: (§2) Mice were fasted overnight and allowed free access to water. […] Tail blood glucose levels were measured at indicated time points using handheld glucometers. For incretin hormone measurements, blood was collected via cardiac bleeds into EDTA-tubes containing DPP-4 inhibitor (Millipore) and protease inhibitor cocktail (Thermo Fisher). For insulin measurements during GTT, blood was collected from the tail.
Immunoassays were used to measure total GIP (Millipore, ELISA), total GLP-1, and insulin (Meso Scale Discovery). Enzymatic assays were used to measure TG, beta-hydroxybutarate (Sigma-Aldrich), and total cholesterol (Thermo Fisher). HDL-cholesterol was determined in the supernatant after removal of LDL/vLDL-cholesterol by a precipitation reagent (Sigma-Aldrich); non-HDL-cholesterol was determined by subtracting HDL from total cholesterol. Free fatty acids were measured by GC-MS.

[2] = Glucose tolerance test (IPGTT/OGTT) after oral dosing in mice; type: in vivo, mouse; conditions: for glucose excursion during IPGTT in Gpr142 KO mice / glucose excursion during IPGTT in WT mice: 500 mg/kg p.o. 15 minutes prior to glucose 2 g/kg i.p.
Method: as §2

murine pancreatic islets = test: Insulin secretion in isolated murine pancreatic islets (WT and Gpr142 KO); type: cell-based, mouse; conditions: 11.1 mM glucose, 1 hour
Method: Secretion was stopped by refrigerating the plates at 4°C for 3 minutes. Supernatant was removed from the wells and assayed for insulin levels using the MA6000 Mouse/Rat Insulin Kit (Meso Scale Discovery).

[3] = system: untransfected control HEK293 cells; test: IP-1 accumulation in untransfected control HEK293 cells; type: cell-based; conditions: Fig 1B
Method: as §1

human pancreatic islets = test: Insulin secretion in isolated human pancreatic islets; type: cell-based; conditions: 11 mM glucose, 1 hour, non-diabetic donor
From the text: Human pancreatic islets were purchased from Prodo Labs at the Scharp-Lacy Research Institute (Irvine, CA, www.prodolabs.com) through the Integrated Islet Distribution Program in accordance with internal review board (IRB) ethical guidelines for use of human tissue. Islets were isolated at Prodo Labs from human pancreata from listed cadaver organ donors that were refused for primary human pancreas transplantation or isolated islets transplantion into listed diabetic recipients. […] The next day day islets were incubated for 30 min in EBSS buffer containing 0.1% BSA and 3 mM glucose. […] Islets were cultured for 60 min at 37°C. The incubation was stopped by chilling the samples on ice. The culture media was removed and stored at -20°C until its insulin concentration was measured. Insulin was measured using a custom built immunoassay (Meso Scale Discovery).

[4] = design: method as in PMID 25787200; conditions: humans, phase III study; cited from earlier work
[5] = system: Free Fatty Acid Receptor 1 (FFAR1, GPR40); design: method as in PMID 21752941; conditions: preclinical models; cited from earlier work
[6] = 150 or 500 mg/kg p.o., overnight fasted normal C57 male mice
[7] = 500 mg/kg p.o. 15 minutes prior to glucose 2 g/kg p.o.

Emax (human GPR142): 18%
EC50 (human GPR142): 12 mM
SMILES: Nc1ccccc1C(=O)C[C@H](N)C(=O)O [L-Kynurenine]

HEK293-hGPR142 EC50 (Emax) (human GPR142): Inactive
SMILES: CC(C)C[C@H](N)C(=O)O [L-Leucine]

Emax (human GPR142): 20%
EC50 (human GPR142): 16 mM
SMILES: NCCCC[C@H](N)C(=O)O [L-Lysine]

HEK293-hGPR142 EC50 (Emax) (human GPR142): Inactive
SMILES: CSCC[C@H](N)C(=O)O [L-Methionine]

Emax (mouse GPR142): 92%
potency on mouse GPR142 relative to L-Trp (fold less potent) (mouse GPR142; HEK293 cell-based IP-1 assay): 4 to 5 fold
EC50 (mouse GPR142): 2.8 mM
Emax (human GPR142): 96%
EC50 (human GPR142): 3.5 mM
SMILES: N[C@@H](Cc1ccccc1)C(=O)O [L-Phenylalanine]
IP-1 accumulation in HEK-hGPR142 cells (human GPR142): has an effect in this assay at concentrations comparable to that of L-Trp
GIP release in Gpr142 KO mice [1]: blunted
insulin release in Gpr142 KO mice [1]: blunted
plasma GLP-1 in Gpr142 KO mice [1]: increased GLP-1 in KO mice to a similar extent as in WT
glucose excursion during IPGTT in Gpr142 KO mice [2]: clearly present
glucose excursion during IPGTT in WT mice [2]: clearly present
insulin secretion in Gpr142 KO islets compared with WT islets (murine pancreatic islets): not significantly different
insulin secretion in WT murine islets (murine pancreatic islets): more modest

HEK293-hGPR142 EC50 (Emax) (human GPR142): Inactive
SMILES: O=C(O)[C@@H]1CCCN1 [L-Proline]

HEK293-hGPR142 EC50 (Emax) (human GPR142): Inactive
SMILES: N[C@@H](CO)C(=O)O [L-Serine]

HEK293-hGPR142 EC50 (Emax) (human GPR142): Inactive
SMILES: C[C@@H](O)[C@H](N)C(=O)O [L-Threonine]

SMILES: N[C@@H](Cc1c[nH]c2ccccc12)C(=O)O [L-Tryptophan]
IP-1 accumulation in HEK-mGPR142 cells (mouse GPR142): stimulated IP-1 accumulation
Emax (mouse GPR142): 100%
EC50 (mouse GPR142): 0.62 mM
IP-1 accumulation in HEK-hGPR142 cells (human GPR142): stimulated IP-1 accumulation
Emax (human GPR142): 100%
EC50 (human GPR142): 2.1 mM
GIP release in Gpr142 KO mice [1]: no L-Trp-dependent release
insulin release in Gpr142 KO mice [1]: no L-Trp-dependent release
plasma GLP-1 in Gpr142 KO mice [1]: increased GLP-1 in KO mice to a similar extent as in WT
time of peak plasma insulin, GIP and GLP-1 concentrations after dosing ([1]; 150 or 500 mg/kg p.o., normal C57 male mice): 5 to 10 min
plasma GIP level [1, 6]: rapidly and dose-dependently increased
plasma GLP-1 level [1, 6]: rapidly and dose-dependently increased
plasma insulin level [1, 6]: rapidly and dose-dependently increased
IP-1 accumulation in untransfected control HEK293 cells [3]: had no effect
glucose excursion during IPGTT in Gpr142 KO mice [2]: no significant effect
glucose excursion during IPGTT in WT mice [2]: suppressed glucose excursion
glucose excursion during OGTT in Gpr142 KO mice [2, 7]: no significant effect
glucose excursion during OGTT in WT mice [2, 7]: suppressed glucose excursion
insulin secretion in human primary islets (human pancreatic islets): robustly stimulated insulin secretion
insulin secretion in Gpr142 KO islets compared with WT islets (murine pancreatic islets): significantly blunted
insulin secretion in WT murine islets (murine pancreatic islets): dose-dependently stimulated the release of insulin

Emax (human GPR142): 14%
EC50 (human GPR142): 16 mM
SMILES: N[C@@H](Cc1ccc(O)cc1)C(=O)O [L-Tyrosine]

HEK293-hGPR142 EC50 (Emax) (human GPR142): Inactive
SMILES: CC(C)[C@H](N)C(=O)O [L-Valine]

SMILES: Cc1cc(OCCCS(C)(=O)=O)cc(C)c1-c1cccc(COc2ccc3c(c2)OC[C@H]3CC(=O)O)c1 [TAK-875]
glycemic control [4]: improve glycemic control
glucose-dependent insulin secretion [5]: stimulate glucose-dependent insulin secretion

SMILES: NCCc1c[nH]c2ccccc12 [Trytamine]
HEK293-hGPR142 EC50 (Emax) (human GPR142): Inactive
